US11744861B2, “Compositions and methods for selective elimination and replacement of hematopoietic stem cells” (Poseida Therapeutics, Inc., priority 2017, dated 2023)

Columns and labels:
[1] = tested on: CARTyrin-expressing cells; assay: in vitro efficacy of iC9 safety switch with AP1903 (relative viability, live cells per bead events); type: cell-based, Human
Experimental: FIGS. 2A-2B is a series of graphs depicting results of evaluating the in vitro efficacy of an inducible proapoptotic polypeptide (iC9 safety switch) of the disclosure using the exemplary induction agent AP1903. Cells expressing a CARTyrin of the disclosure were A) thawed and rested overnight or B) activated using ImmunoCult™ Human CD3/CD28/CD2 T cell Activator reagent for 5 days were treated with AP1903 for the indicated length of time and concentrations. All data points were collected in triplicate and relative viability determined by dividing the number of live cells in the treatment group by the average number of live cells in the no treatment group per 1,500 bead events collected. Greater than 80% of the non-activated CARTyrin-expressing cells were eliminated from the culture at 24 hours across all dose levels tested (FIG. 1). There was no observable difference between the 24 hour and 48 hour time point in the non-activated cells. In the activated CARTyrin-expressing cells however, both a dose response as well as temporal response were observed. At 12 hours post AP1903 administration, >65% of the cells were killed by concentrations as low as 1 nM. […] Expression of the CARTyrin is be increased upon activation of the cells, and provided the vector design; the expression of iC9 could also increase. Therefore, an activated cell may express higher levels of iC9 making it more sensitive to AP1903. In many embodiments, the activated cells will be the target if and when employing the safety switch.

[2] = tested on: Human pan T-cells with piggyBac integrated iC9; assay: iC9 safety switch test, viability by flow cytometry using 7-AAD; type: cell-based; details: iC9-containing modified T cells; 24 hours incubation
Text: Human pan T-cells were nucleofected using an Amaxa 4D nucleofector with one of four piggyBac transposons. Modified T cells receiving the “mock” condition were nucleofected with an empty piggyBac transposon. Modified T cells received either a piggyBac […] containing a therapeutic agent alone (a sequence encoding a CARTyrin) or a piggyBac […] containing an integrated iC9 sequence and a therapeutic agent (a sequence encoding a CARTyrin). To test the iC9 safety switch, each of the four modified T cells were incubated for 24 hours with 0, 0.1 nM, 1 nM, 10 nM, 100 nM or 1000 nM AP1903 (an induction agent for […]). Viability was assessed by flow cytometry using 7-aminoactinomycin D (7-AAD), a fluorescent intercalator, as a marker for cells undergoing apoptosis. Cell viability was assessed at day 12 (see FIG. 2). […] Moreover, cell viability was assessed at day 19 (see FIG. 3). […] A quantification of the aggregated results was performed and is provided in FIG. 4, showing the significant impact of the iC9 safety switch on the percent cell viability as a function of the concentration of the induction agent (AP1903) of the iC9 switch for each modified cell type at either day 12 (FIG. 2 and left graph) or day 19 (FIG. 3 and right graph). […] Furthermore, the iC9 safety switch may be functionally expressed as part of a tricistronic vector.

CC[C@H](C(=O)N1CCCC[C@H]1C(=O)O[C@H](CCc1ccc(OC)c(OC)c1)c1cccc(OCC(=O)NCCNC(=O)COc2cccc([C@@H](CCc3ccc(OC)c(OC)c3)OC(=O)[C@@H]3CCCCN3C(=O)[C@@H](CC)c3cc(OC)c(OC)c(OC)c3)c2)c1)c1cc(OC)c(OC)c(OC)c1 [AP1903]
cells killed ([1]; activated CARTyrin-expressing cells, 12 hours post AP1903, concentrations as low as 1 nM): > 65%
cells killed ([1]; activated cells, 48 hours): > 95%
cells eliminated from the culture ([1]; non-activated CARTyrin-expressing cells, 24 hours, all dose levels tested): Greater than 80%
concentration at which apoptosis is induced (lowest of the study) [2]: 0.1 nM
